# Measured values from PMC12019328, “Discovery of an ApoE4-targeted small-molecule SirT1 enhancer for the treatment of Alzheimer’s disease” (Scientific Reports, 2025).
# Experiment: Liver microsome stability
# Assay type: in vitro ADME
# Details: pH 7.4; human liver microsomes 0.5 mg/mL, NADPH, 37 °C; read-out: Microsomal stability t1/2
# Method: page 6: A03 DDL-214 Figure S3B. SirT1 protein levels in N2a-E4 cells after A03 and DDL-214 treatment. Compound treatment was done at 5 and 50 µM. SirT1 levels were measured by AlphaLISA followed and normalized to protein concentration DDL-218 Physiochemical Properties Physiochemical properties of DDL-218 are shown in Table S2. Brain Tissue Binding [fu,bound (%)] Brain tissue was homogenized in PBS (pH 7.4) (1: 3 weight(mg)/volume(µL)) and the protein concentration of was determined using the Micro BCA™ Protein Assay Kit (Thermo Fisher Scientific, Cat#23235). Brain homogenate was diluted to 20 mg/mL in PBS (pH 7.4) and added to Slide-A-Lyzer™ MINI Dialysis Devices, 10K MWCO dialysis cups (Thermo Fisher Scientific, Cat#PI88401) in 48-well plate containing PBS (500 µL; pH 7.4). 1 µL of 1 mM compound was added to the brain homogenate (Final Concentration: 2 µM compound, 0.5% DMSO) and incubated on a rocker for 4.5 hours at 37 °C. […] The % of the unbound drug (fu,bound) was calculated using the following equation: fu,bound = [normalized peak area in buffer side / normalized peak area in brain side] x 100 Liver Microsome Stability [t1/2 (min)] […] An aliquot (50 µL) of each supernatant was analyzed by LC-MS/MS. […] Aliquots (50 µL) of supernatant were analyzed by LC-MS/MS to create the standard curve. […]
smiles,measurement,value
CC(N)C(=O)OC(C)(C)Cc1ccncc1 (stereo not shown) [DDL-218],half-life,> 2.33 h
